Experimental data as given in US20250302965A1, “Preparations of Basic pH Hydrotropes & Methods for Making Same” (Aurora Pharmaceutical, Inc., priority 2023, published 2025).

Assay: not given
Details: cited from earlier work

Row | Compound | acidity (pKa)
1 | CNC[C@H](O)[C@@H](O)[C@H](O)[C@H](O)CO [Meglumine] | 8.01

Assay: Solubilization by meglumine chelate system (hydrotrope) at basic pH
Details: basic pH with meglumine

Row | Compound | Dissolution after treatment to create a chelate system
2 | O=C(CNC(=O)c1ccc(C2=NOC(c3cc(Cl)cc(C(F)(F)F)c3)(C(F)(F)F)C2)c2ccccc12)NCC(F)(F)F (stereo not drawn) [Afoxolaner] | Contains two amides and two aromatic groups, but the amides are not on a chain between the two aromatic groups. The one nitrogen atom that is between the two aromatic groups is not a secondary amine, amide or amino sulfone and did not dissolve when tested.
3 | COc1ccc(-c2cc(C(F)F)nn2-c2ccc(S(N)(=O)=O)cc2)cc1F [Deracoxib] | Contains two aromatic groups and an aryl amino sulfone but the two nitrogen atoms between the aromatic groups are not secondary amines, amides or amino sulfones and did not dissolve when tested.
4 | CCN1CCN(c2cc3c(cc2F)c(=O)c(C(=O)O)cn3C2CC2)CC1 [Enrofloxacin] | Contains only tertiary amines and only one aromatic group and did not dissolve when tested.
5 | CC[C@H](C)[C@H]1O[C@]2(C=C[C@@H]1C)C[C@@H]1C[C@@H](C/C=C(\C)[C@@H](O[C@H]3C[C@H](OC)[C@@H](O[C@H]4C[C@H](OC)[C@H](NC(C)=O)[C@H](C)O4)C(C)O3)[C@@H](C)/C=C/C=C3\CO[C@@H]4[C@H](O)C(C)=C[C@@H](C(=O)O1)[C@]34O)O2 (stereo partly drawn) [Eprinomectin] | Contains an amide, but no amines, amino sulfones or aromatic groups and did not dissolve when tested.
6 | COC(=O)Nc1nc2ccc(Sc3ccccc3)cc2[nH]1 [Fenbendazole] | Contains two aromatic groups and an amide, but the amide is not on the chain between the two aromatic groups and did not dissolve when tested.
7 | CC1(C)OC(=O)C(OCC2CC2)=C1c1ccc(S(C)(=O)=O)cc1 [Firocoxib] | Does not contain any nitrogen and only one aromatic group with an aryl sulfone and did not dissolve when tested.
8 | CS(=O)(=O)c1ccc([C@@H](O)[C@@H](CF)NC(=O)C(Cl)Cl)cc1 [Florfenicol] | Contains an amide and an aryl sulfone, but only one aromatic group and did not dissolve when tested.
9 | O=[N+]([O-])/N=C1\NCCN1Cc1ccc(Cl)nc1 [Imidacloprid] | Contains a secondary amine and other nitrogen containing groups but only one aromatic group and did not dissolve when tested.
10 | O=C(NC(=O)c1c(F)cccc1F)Nc1cc(Cl)c(OC(F)(F)C(F)C(F)(F)F)cc1Cl (stereo not drawn) [Lufenuron] | Contains two aromatic groups separated by two amide groups between the two aromatic groups and did not dissolve when tested.
11 | CO/N=C1\C[C@]2(C[C@@H]3C[C@@H](C/C=C(\C)C[C@@H](C)/C=C/C=C4\CO[C@@H]5[C@H](O)C(C)=C[C@@H](C(=O)O3)[C@]45O)O2)O[C@H](/C(C)=C/C(C)C)[C@H]1C [Moxidectin] | No amines, amides, amino sulfones, or aromatic groups and did not dissolve when tested.
12 | COc1ccc2[nH]c([S+]([O-])Cc3ncc(C)c(OC)c3C)nc2c1 (stereo not drawn) [Omeprazole] | Contains an aromatic benzene ring, a sulfoxide and an aromatic benzimidazole group, but it does not contain a secondary amine, amide or amino sulfone group and did not dissolve when tested.
13 | Cc1cc(-n2c(=O)[nH]c(=O)n(C)c2=O)ccc1Oc1ccc(S(=O)(=O)C(F)(F)F)cc1 [Ponazuril] | Contains two aromatic groups and a sulfoxide and an amide, but the amide is not on the chain between the two aromatic rings and did not dissolve when tested.

Same assay, conditions: basic pH, meglumine at least 2:1 molar ratio (meglumine to molecule)

Row | Compound | Examples of Solubilities Demonstrated in Experiments (in w/v)
14 | CCc1nc2c(C)nc(C)cc2n1-c1ccc(CCNC(=O)NS(=O)(=O)c2ccc(C)cc2)cc1 [Grapiprant] | At least 1.5% w/v

Assay: not given
Details: source named in cell (Merck Index, Pubchem, published literature); cited from earlier work

Row | Compound | Reported Solubility in Water (in w/v)
15 | CC(C(=O)O)c1ccc2c(c1)[nH]c1ccc(Cl)cc12 (stereo not drawn) [Carprofen] | 0.00411% (Pubchem) % w/v
16 | CCc1nc2c(C)nc(C)cc2n1-c1ccc(CCNC(=O)NS(=O)(=O)c2ccc(C)cc2)cc1 [Grapiprant] | Insoluble (Pubchem)
17 | CN1C(C(=O)Nc2ccccn2)=C(O)c2ccccc2S1(=O)=O [Piroxicam] | 0.00497% (Pubchem) % w/v
18 | CCc1ccc(Nc2c(F)c(F)cc(F)c2F)c(CC(=O)O)c1 [Robenacoxib] | 0.017% (published literature) % w/v
19 | Nc1ccc(S(=O)(=O)Nc2ncccn2)cc1 [Sulfadiazine] | 0.0077% (Pubchem) % w/v
20 | COc1cc(NS(=O)(=O)c2ccc(N)cc2)nc(OC)n1 [Sulfadimethoxine] | 0.0343% (Pubchem) % w/v

Assay: Meloxicam formulations at different meglumine-to-meloxicam molar ratios; neutralization
Assay type: physicochemical
Details: […] w/v meloxicam formula, 2:1 meglumine-to-meloxicam, neutralized; pH crossed neutral

Row | Compound | Behaviour on neutralization
21 | Cc1cnc(NC(=O)C2=C(O)c3ccccc3S(=O)(=O)N2C)s1 [Meloxicam] | fell out of solution
